Results taken from US10040766B2, “Ubiquitination inhibitors” (Rigel Pharmaceuticals, Inc., priority 2014, dated 2018).
Where two headings read alike, the source gives them in different places.

Legend:
[1] = molecular target: Cks1-Skp2 protein-protein interaction (Homo sapiens, UniProt P61024+Q13309); experiment: Cks1-Skp2 protein-protein interaction ELISA; format: binding
Text: In vitro binding of Skp2 to Cks1 was established in an ELISA assay format, with Cks1 protein immobilized on a 384-well plate and binding of Skp1/Skp2 to Cks1 detected by anti-Skp2 immunoreaction.

[2] = test system: fibrosarcoma HT1080; experiment: Inhibition of tumor cell growth, HT1080; format: cell-based
[3] = test system: lung tumor cell line A549; experiment: Inhibition of tumor cell growth, A549; format: cell-based
[4] = Table 3, read-out: IC50 Cks1-Skp2
[5] = sulfonamide analogues, Table 2, read-out: Potency in the Cks1-Skp2 interaction assay
[6] = ELISA, Cks1 immobilized, Skp1/Skp2 binding detected by anti-Skp2, read-out: Cks1-Skp2 (μM), potency in the interaction assay

Sequence of Cks1-Skp2 protein-protein interaction (P61024 whole entry): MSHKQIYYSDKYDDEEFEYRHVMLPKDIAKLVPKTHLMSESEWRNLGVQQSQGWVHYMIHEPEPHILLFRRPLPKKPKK
Sequence of Cks1-Skp2 protein-protein interaction (Q13309 whole entry): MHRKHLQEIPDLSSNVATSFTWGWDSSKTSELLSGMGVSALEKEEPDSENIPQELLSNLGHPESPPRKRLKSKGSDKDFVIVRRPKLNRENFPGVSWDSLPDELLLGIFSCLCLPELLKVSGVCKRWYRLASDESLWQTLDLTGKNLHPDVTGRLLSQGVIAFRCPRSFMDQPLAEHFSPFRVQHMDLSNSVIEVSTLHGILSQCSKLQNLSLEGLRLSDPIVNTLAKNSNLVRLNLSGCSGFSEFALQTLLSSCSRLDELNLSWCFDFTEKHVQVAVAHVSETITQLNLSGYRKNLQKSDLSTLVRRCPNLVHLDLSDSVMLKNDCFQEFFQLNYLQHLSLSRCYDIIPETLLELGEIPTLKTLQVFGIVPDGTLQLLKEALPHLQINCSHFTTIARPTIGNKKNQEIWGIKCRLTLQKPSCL

Row | Compound | IC50 [1, 4] [µM] | IC50 [1, 5] [µM] | IC50 [2] [nM] | IC50 [3] [nM] | IC50 [1, 6] [µM] | IC50 ([2]; Homo sapiens, HT-1080) [nM] | IC50 ([3]; Homo sapiens) [nM]
1 | 4-methoxy-N-(5-(pyridin-3-yl)quinolin-8-yl)benzenesulfonamide [Compound 29] | 2.45 | 2.45 | 1320 | 3060 |  |  | 
2 | 4-methoxy-N-(5-(pyridin-4-yl)quinolin-8-yl)benzenesulfonamide [Compound 23] | 0.58 | 0.58 | 440 | 1240 |  |  | 
3 | Cc1ccc(S(=O)(=O)Nc2ccc(Br)c3cccnc23)cc1 [Compound 1, N-(5-bromoquinolin-8-yl)-4-methylbenzenesulfonamide] |  |  |  |  | 0.84 |  | 
4 | Cc1ccc(S(=O)(=O)Nc2ccc(-c3ccccc3)c3cccnc23)cc1 [Compound 4, 4-methyl-N-(5-phenylquinolin-8-yl)benzenesulfonamide] | 0.54 |  |  |  | 0.54 | 1640 | 2360
5 | Cc1ccc(S(=O)(=O)Nc2ccc(-c3ccco3)c3cccnc23)cc1 [Compound 5, N-(5-(furan-2-yl)quinolin-8-yl)-4-methylbenzenesulfonamide] | 0.55 |  |  |  | 0.55 | 9780 | 26000
6 | Cc1ccc(S(=O)(=O)Nc2ccc(-c3cccnc3)c3cccnc23)cc1 [Compound 6, 4-methyl-N-(5-(pyridin-3-yl)quinolin-8-yl)benzenesulfonamide] | 1.73 |  |  |  | 1.73 | 4220 | 6020
7 | Cc1ccc(S(=O)(=O)Nc2ccc(-c3ccsc3)c3cccnc23)cc1 [Compound 7, 4-methyl-N-(5-(thiophen-3-yl)quinolin-8-yl)benzenesulfonamide] | 5.54 |  |  |  | 5.54 | 640 | 2360
8 | Cc1ccc(S(=O)(=O)Nc2ccc(-c3cc4ccccc4s3)c3cccnc23)cc1 [Compound 8, N-(5-(benzo[b]thiophen-2-yl)quinolin-8-yl)-4-methylbenzenesulfonamide] | 7.84 |  |  |  | 7.84 | 150 | 390
9 | Cc1ccc(S(=O)(=O)Nc2cc(Oc3cc(F)cc(F)c3)cc3cccnc23)cc1 [Compound 12, N-(6-(3,5-difluorophenoxy)quinolin-8-yl)-4-methylbenzenesulfonamide] | 3.57 |  | 80 | 4110 | 3.57 |  | 
10 | COc1ccc(Oc2cc(NS(=O)(=O)c3ccc(C)cc3)c3ncccc3c2)cc1 [Compound 13, N-(6-(4-methoxyphenoxy)quinolin-8-yl)-4-methylbenzenesulfonamide] | 1.15 |  | 740 | 4090 | 1.15 |  | 
11 | Cc1ccc(S(=O)(=O)Nc2cc(Oc3cccc(C#N)c3)cc3cccnc23)cc1 [Compound 14, N-(6-(3-cyanophenoxy)quinolin-8-yl)-4-methylbenzenesulfonamide] | 1.74 |  | 6830 | 6480 | 1.74 |  | 
12 | CS(=O)(=O)Nc1ccc(-c2ccccc2)c2cccnc12 [Compound 15, N-(5-phenylquinolin-8-yl)methanesulfonamide] |  | 2.2 |  |  |  |  | 
13 | O=S(=O)(Nc1ccc(-c2ccccc2)c2cccnc12)C1CC1 [Compound 16, N-(5-phenylquinolin-8-yl)cyclopropanesulfonamide] |  | 12.1 |  |  |  |  | 
14 | COc1ccc(S(=O)(=O)Nc2ccc(-c3ccccc3)c3cccnc23)cc1 [Compound 17, 4-methoxy-N-(5-phenylquinolin-8-yl)benzenesulfonamide] |  | 8.02 |  |  |  |  | 
15 | O=S(=O)(Nc1ccc(-c2ccccc2)c2cccnc12)c1cccc(C(F)(F)F)c1 [Compound 18, N-(5-phenylquinolin-8-yl)-3-(trifluoromethyl)benzenesulfonamide] |  | 6.7 |  |  |  |  | 
16 | O=S(=O)(Nc1ccc(-c2ccccc2)c2cccnc12)c1cccnc1 [Compound 19, N-(5-phenylquinolin-8-yl)pyridine-3-sulfonamide] |  | 2.2 |  |  |  |  | 
17 | CC(=O)Nc1ccc(S(=O)(=O)Nc2ccc(-c3ccccc3)c3cccnc23)cc1 [Compound 20, N-(4-(N-(5-phenylquinolin-8-yl)sulfamoyl)phenyl)acetamide] |  | 7.6 |  |  |  |  | 
18 | CS(=O)(=O)Nc1ccc(-c2cccnc2)c2cccnc12 [Compound 21, N-(5-(pyridin-3-yl)quinolin-8-yl)methanesulfonamide] |  | 15.1 |  |  |  |  | 
19 | O=S(=O)(Nc1ccc(-c2cccnc2)c2cccnc12)C1CC1 [Compound 22, N-(5-(pyridin-3-yl)quinolin-8-yl)cyclopropanesulfonamide] |  | 7.16 |  |  |  |  | 
20 | O=S(=O)(Nc1ccc(-c2cccnc2)c2cccnc12)c1cccc(C(F)(F)F)c1 [Compound 24, N-(5-(pyridin-3-yl)quinolin-8-yl)-3-(trifluoromethyl)benzenesulfonamide] | 0.17 | 0.17 |  |  |  | 400 | 910
21 | O=S(=O)(Nc1ccc(-c2cccnc2)c2cccnc12)c1cccnc1 [Compound 25, N-(5-(pyridin-3-yl)quinolin-8-yl)pyridine-3-sulfonamide] | 1.67 | 1.67 |  |  |  | 1070 | 5240
22 | CC(=O)Nc1ccc(S(=O)(=O)Nc2ccc(-c3cccnc3)c3cccnc23)cc1 [Compound 26, N-(4-(N-(5-(pyridin-3-yl)quinolin-8-yl)sulfamoyl)phenyl)acetamide] |  | 14.5 |  |  |  |  | 
23 | O=S(=O)(Nc1ccc(-c2ccncc2)c2cccnc12)C1CC1 [Compound 28, N-(5-(pyridin-4-yl)quinolin-8-yl)cyclopropanesulfonamide] |  | 10.9 |  |  |  |  | 
24 | O=S(=O)(Nc1ccc(-c2ccncc2)c2cccnc12)c1cccnc1 [Compound 30, N-(5-(pyridin-4-yl)quinolin-8-yl)pyridine-3-sulfonamide] | 1.21 | 1.21 |  |  |  | 1070 | 5880
25 | CC(=O)Nc1ccc(S(=O)(=O)Nc2ccc(-c3ccncc3)c3cccnc23)cc1 [Compound 31, N-(4-(N-(5-(pyridin-4-yl)quinolin-8-yl)sulfamoyl)phenyl)acetamide] |  | 6.55 |  |  |  |  | 
